Laboratory results as given in patent publication US4185106A, “Pyridones as antidandruff agents” (Hoechst Aktiengesellschaft, priority 1972, dated 1980).
Counter-ions that a name gives are not always drawn.

Experiments:
[1] = LD50 toxicity comparison
Text: [formula] a=ethanolamine salt of 1-hydroxy-4,6-dimethyl-2-pyridone b=zinc salt of 1-hydroxy-4,6-dimethyl-2-pyridone c=zinc salt of 1-hydroxy-4-methyl-6-(2,4,4-trimethyl-pentyl)2-pyridone d=ethanolamine salt of 1-hydroxy-4-methyl-6-cyclohexyl-2-pyridone, administered in starch mucilage e=zinc salt of 1-hydroxy-4-methyl-6-cyclohexyl-2-pyridoneand [formula]

[2] = prior art compounds, cited from earlier work
[3] = system: skin; conditions: J. Soc. Cosmet. Chem. 23 (1972), pages 100, 112; cited from earlier work
[4] = system: dandruff; conditions: half-side washing repeated over several weeks at determined intervals

Cc1cc(C2CCCCC2)n([O-])c(=O)c1.Cc1cc(C2CCCCC2)n([O-])c(=O)c1.[Zn+2] [e, zinc salt of 1-hydroxy-4-methyl-6-cyclohexyl-2-pyridone]
LD50 ([1]; species and route not given): more than 6400 mg/kg

On1ccccc1=S.[Na] [sodium-1-hydroxy-2-pyridine-thione]
stability to hydrolysis [2]: not stable to hydrolysis
dermal toxicity [3]: considerable dermal toxicity

[O-]n1ccccc1=S.[O-]n1ccccc1=S.[Zn+2] [g, zinc salt of 1-hydroxy-2-pyridine-thione]
sensitivity to oxidation ([2]; mild oxidizing agents form 2,2'-dithio-bis(pyridine-1-oxide)): sensitive to oxidation
removal of dandruff after standardized washing [4]: dandruff still showed in many cases
LD50 ([1]; species and route not given): 700 mg/kg

On1ccccc1=S [1-hydroxy-2-pyridine-thione]
stability to heat [2]: sensitive to heat
stability to light [2]: not stable to light

Cc1cc(CC(C)CC(C)(C)C)n([O-])c(=O)c1.Cc1cc(CC(C)CC(C)(C)C)n([O-])c(=O)c1.[Zn+2] (stereo not drawn) [c, zinc salt of 1-hydroxy-4-methyl-6-(2,4,4-trimethyl-pentyl)2-pyridone]
LD50 ([1]; species and route not given): more than 6400 mg/kg

Cc1cc(C2CCCCC2)n(O)c(=O)c1 [d, ethanolamine salt of 1-hydroxy-4-methyl-6-cyclohexyl-2-pyridone]
LD50 ([1]; in vivo): 5500 mg/kg

Cc1cc(C)n(O)c(=O)c1 [a, ethanolamine salt of 1-hydroxy-4,6-dimethyl-2-pyridone]
LD50 ([1]; in vivo): > 4480 mg/kg

Cc1cc(C)n([O-])c(=O)c1.Cc1cc(C)n([O-])c(=O)c1.[Zn+2] [b, zinc salt of 1-hydroxy-4,6-dimethyl-2-pyridone]
LD50 ([1]; species and route not given): more than 6400 mg/kg
